# Test results from the supplement of paper PMC10307832.
# Tests used:
# Assay in all cases: relative viability (nuclei count vs DMSO), 5 days (fraction); higher = more cells survive
# A-427 = test system: A-427
# Method in brief: (§1)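 Dosing by pin tool came one day after lung cancer cell lines were seeded in 1536-well plates, using either one drug or a fixed anchor-drug dose plus five library-drug doses (not always all listed) in √10 steps. After 5 days, nuclei were counted on 4× images. Relative viability is treated-well nuclei count divided by vehicle-well nuclei count, and values are medians of duplicate plates.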
# COR-L 105 = test system: COR-L 105
# Method in brief: as §1
# EPLC-272H = test system: EPLC-272H
# Method in brief: as §1
# HCC-366 = test system: HCC-366
# Method in brief: as §1
# HCC-78 = test system: HCC-78
# Method in brief: as §1
# HOP-62 = test system: HOP-62
# Method in brief: as §1
# LC-2-ad = test system: LC-2-ad
# Method in brief: as §1
# LCLC-97TM1 = test system: LCLC-97TM1
# Method in brief: as §1
# LU99A = test system: LU99A
# Method in brief: as §1
# LXF-289 = test system: LXF-289
# Method in brief: as §1
# NCI-H1755 = test system: NCI-H1755
# Method in brief: as §1
# NCI-H1792 = test system: NCI-H1792
# Method in brief: as §1
# NCI-H1915 = test system: NCI-H1915
# Method in brief: as §1
# NCI-H1944 = test system: NCI-H1944
# Method in brief: as §1
# NCI-H1975 = test system: NCI-H1975
# Method in brief: as §1
# NCI-H2085 = test system: NCI-H2085
# Method in brief: as §1
# NCI-H2170 = test system: NCI-H2170
# Method in brief: as §1
# NCI-H358 = test system: NCI-H358
# Method in brief: as §1
# NCI-H460 = test system: NCI-H460
# Method in brief: as §1
# SK-LU-1 = test system: SK-LU-1
# Method in brief: as §1
# UMC-11 = test system: UMC-11
# Method in brief: as §1
smiles,measurement,setting,value
O=C(O)c1ccc(-c2c[nH]c3ncc(-c4ccccc4)cc23)cc1C1CCCC1 + C[C@@H](Oc1cc(-c2cnn(C3CCNCC3)c2)cnc1N)c1c(Cl)ccc(F)c1Cl [Crizotinib] (partner 1 µM),relative viability,A-427; first compound 0.04 µM,0.941
same,relative viability,A-427; first compound 0.1265 µM,0.845
same,relative viability,A-427; first compound 0.4 µM,0.86
same,relative viability,A-427; first compound 1.265 µM,0.852
same,relative viability,COR-L 105; first compound 0.04 µM,0.857
same,relative viability,COR-L 105; first compound 0.1265 µM,0.789
same,relative viability,COR-L 105; first compound 0.4 µM,0.723
same,relative viability,COR-L 105; first compound 1.265 µM,0.792
same,relative viability,EPLC-272H; first compound 0.04 µM,0.974
same,relative viability,EPLC-272H; first compound 0.1265 µM,1.01
same,relative viability,EPLC-272H; first compound 0.4 µM,0.989
same,relative viability,EPLC-272H; first compound 1.265 µM,0.655
same,relative viability,HCC-366; first compound 0.04 µM,0.502
same,relative viability,HCC-366; first compound 0.1265 µM,0.686
same,relative viability,HCC-366; first compound 0.4 µM,0.619
same,relative viability,HCC-366; first compound 1.265 µM,0.696
same,relative viability,HCC-78; first compound 0.04 µM,0.338
same,relative viability,HCC-78; first compound 0.1265 µM,0.381
same,relative viability,HCC-78; first compound 0.4 µM,0.328
same,relative viability,HCC-78; first compound 1.265 µM,0.293
same,relative viability,HOP-62; first compound 0.04 µM,0.902
same,relative viability,HOP-62; first compound 0.1265 µM,0.901
same,relative viability,HOP-62; first compound 0.4 µM,0.904
same,relative viability,HOP-62; first compound 1.265 µM,0.497
same,relative viability,LC-2-ad; first compound 0.04 µM,0.496
same,relative viability,LC-2-ad; first compound 0.1265 µM,0.452
same,relative viability,LC-2-ad; first compound 0.4 µM,0.412
same,relative viability,LC-2-ad; first compound 1.265 µM,0.364
same,relative viability,LCLC-97TM1; first compound 0.04 µM,0.376
same,relative viability,LCLC-97TM1; first compound 0.1265 µM,0.329
same,relative viability,LCLC-97TM1; first compound 0.4 µM,0.234
same,relative viability,LCLC-97TM1; first compound 1.265 µM,0.326
same,relative viability,LU99A; first compound 0.04 µM,0.539
same,relative viability,LU99A; first compound 0.1265 µM,0.678
same,relative viability,LU99A; first compound 0.4 µM,0.503
same,relative viability,LU99A; first compound 1.265 µM,0.486
same,relative viability,LXF-289; first compound 0.04 µM,0.741
same,relative viability,LXF-289; first compound 0.1265 µM,0.772
same,relative viability,LXF-289; first compound 0.4 µM,0.594
same,relative viability,LXF-289; first compound 1.265 µM,0.285
same,relative viability,NCI-H1755; first compound 0.04 µM,0.883
same,relative viability,NCI-H1755; first compound 0.1265 µM,0.924
same,relative viability,NCI-H1755; first compound 0.4 µM,0.897
same,relative viability,NCI-H1755; first compound 1.265 µM,0.839
same,relative viability,NCI-H1792; first compound 0.04 µM,0.959
same,relative viability,NCI-H1792; first compound 0.1265 µM,0.994
same,relative viability,NCI-H1792; first compound 0.4 µM,1.03
same,relative viability,NCI-H1792; first compound 1.265 µM,0.891
same,relative viability,NCI-H1915; first compound 0.04 µM,0.96
same,relative viability,NCI-H1915; first compound 0.1265 µM,0.898
same,relative viability,NCI-H1915; first compound 0.4 µM,0.67
same,relative viability,NCI-H1915; first compound 1.265 µM,0.636
same,relative viability,NCI-H1944; first compound 0.04 µM,1.03
same,relative viability,NCI-H1944; first compound 0.1265 µM,1.14
same,relative viability,NCI-H1944; first compound 0.4 µM,1.08
same,relative viability,NCI-H1944; first compound 1.265 µM,1.01
same,relative viability,NCI-H1975; first compound 0.04 µM,0.999
same,relative viability,NCI-H1975; first compound 0.1265 µM,1.04
same,relative viability,NCI-H1975; first compound 0.4 µM,0.923
same,relative viability,NCI-H1975; first compound 1.265 µM,0.767
same,relative viability,NCI-H2085; first compound 0.04 µM,0.832
same,relative viability,NCI-H2085; first compound 0.1265 µM,0.804
same,relative viability,NCI-H2085; first compound 0.4 µM,0.878
same,relative viability,NCI-H2085; first compound 1.265 µM,0.696
same,relative viability,NCI-H2170; first compound 0.04 µM,1.12
same,relative viability,NCI-H2170; first compound 0.1265 µM,1.24
same,relative viability,NCI-H2170; first compound 0.4 µM,1.18
same,relative viability,NCI-H2170; first compound 1.265 µM,0.843
same,relative viability,NCI-H358; first compound 0.04 µM,0.633
same,relative viability,NCI-H358; first compound 0.1265 µM,0.579
same,relative viability,NCI-H358; first compound 0.4 µM,0.512
same,relative viability,NCI-H358; first compound 1.265 µM,0.352
same,relative viability,NCI-H460; first compound 0.04 µM,0.872
same,relative viability,NCI-H460; first compound 0.1265 µM,1.06
same,relative viability,NCI-H460; first compound 0.4 µM,0.83
same,relative viability,NCI-H460; first compound 1.265 µM,0.864
same,relative viability,SK-LU-1; first compound 0.04 µM,0.927
same,relative viability,SK-LU-1; first compound 0.1265 µM,0.901
same,relative viability,SK-LU-1; first compound 0.4 µM,0.719
same,relative viability,SK-LU-1; first compound 1.265 µM,0.682
same,relative viability,UMC-11; first compound 0.04 µM,0.587
same,relative viability,UMC-11; first compound 0.1265 µM,0.629
same,relative viability,UMC-11; first compound 0.4 µM,0.646
same,relative viability,UMC-11; first compound 1.265 µM,0.612
